Measured values taken from ChEMBL document CHEMBL4118196, “Design and synthesis of a series of bioavailable fatty acid synthase (FASN) KR domain inhibitors for cancer therapy” (Bioorg Med Chem Lett, 2018).

Experiments:
Fatty acid synthase = Fatty acid synthase (Homo sapiens, UniProt P49327)
Description: Inhibition of human full length FASN using [3H]-acetyl-CoA/malonyl-CoA as substrate after 60 mins in presence of NADPH by scintillation proximity assay

NCI-H929 [1] = assay: Antiproliferative activity against human NCI-H929 cells in culture medium with 10% lipid-reduced serum after 4 days in presence of palmitate by ATP-Glo assay; assay type: functional, cell-based; details: NCI-H929, 96 h
K562 [2] = assay: Antiproliferative activity against human K562 cells in culture medium with 10% lipid-reduced serum after 4 days by ATP-Glo assay; assay type: functional, cell-based; details: K562, 96 h
MDA-MB-468 [3] = assay: Antiproliferative activity against human MDA-MB-468 cells in culture medium with 10% lipid-reduced serum after 4 days by ATP-Glo assay; assay type: functional, cell-based; details: MDA-MB-468, 96 h
MV4-11 [4] = assay: Antiproliferative activity against human MV4-11 cells in culture medium with 10% lipid-reduced serum after 4 days in presence of palmitate by ATP-Glo assay; assay type: functional, cell-based; details: MV4-11, 96 h
HL-60 [5] = assay: Antiproliferative activity against human HL60 cells in culture medium with 10% lipid-reduced serum after 4 days by ATP-Glo assay; assay type: functional, cell-based; details: HL-60, 96 h
[6] = Protein binding in mouse plasma; assay type: ADME, cell-free; details: read-out: PPB (converted)
Cytochrome P450 2C8 = Cytochrome P450 2C8 (Homo sapiens, UniProt P10632); assay: Inhibition of human CYP2C8; assay type: ADME
Chain of Cytochrome P450 2C8 (P10632 whole entry): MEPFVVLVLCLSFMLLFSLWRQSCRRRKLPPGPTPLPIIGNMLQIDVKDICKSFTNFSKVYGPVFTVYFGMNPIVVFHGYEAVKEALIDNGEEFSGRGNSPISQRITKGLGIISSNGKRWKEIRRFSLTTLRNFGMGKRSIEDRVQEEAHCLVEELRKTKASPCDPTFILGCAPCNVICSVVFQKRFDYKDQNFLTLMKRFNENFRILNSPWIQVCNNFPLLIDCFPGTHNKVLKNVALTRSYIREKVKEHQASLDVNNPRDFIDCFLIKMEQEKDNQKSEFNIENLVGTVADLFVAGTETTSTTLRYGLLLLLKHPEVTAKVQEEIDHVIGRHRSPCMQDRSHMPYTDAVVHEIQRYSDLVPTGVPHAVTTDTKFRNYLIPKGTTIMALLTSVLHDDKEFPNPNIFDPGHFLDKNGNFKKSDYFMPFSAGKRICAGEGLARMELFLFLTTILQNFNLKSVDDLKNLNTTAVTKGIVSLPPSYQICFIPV

[7] = Antiproliferative activity against human MM1R cells in culture medium with 10% lipid-reduced serum after 4 days in presence of palmitate by ATP-Glo assay; assay type: functional, cell-based; details: MM.1R, 96 h
[8] = Stability in mouse microsomes; assay type: ADME, Microsome
[9] = Antiproliferative activity against human LL cells in culture medium with 10% lipid-reduced serum after 4 days by ATP-Glo assay; assay type: functional, cell-based; details: 96 h
HL-60 [10] = assay: Antiproliferative activity against human HL60 cells in culture medium with 10% lipid-reduced serum after 4 days in presence of palmitate by ATP-Glo assay; assay type: functional, cell-based; details: HL-60, 96 h
A2780 [11] = assay: Antiproliferative activity against human A2780 cells in culture medium with 10% lipid-reduced serum after 4 days by MTT assay; assay type: functional, cell-based; details: A2780, 96 h
[12] = Stability in mouse plasma; assay type: ADME, cell-free
Cytochrome P450 2C19 = Cytochrome P450 2C19 (Homo sapiens, UniProt P33261); assay: Inhibition of human CYP2C19; assay type: ADME
Chain of Cytochrome P450 2C19 (P33261 whole entry): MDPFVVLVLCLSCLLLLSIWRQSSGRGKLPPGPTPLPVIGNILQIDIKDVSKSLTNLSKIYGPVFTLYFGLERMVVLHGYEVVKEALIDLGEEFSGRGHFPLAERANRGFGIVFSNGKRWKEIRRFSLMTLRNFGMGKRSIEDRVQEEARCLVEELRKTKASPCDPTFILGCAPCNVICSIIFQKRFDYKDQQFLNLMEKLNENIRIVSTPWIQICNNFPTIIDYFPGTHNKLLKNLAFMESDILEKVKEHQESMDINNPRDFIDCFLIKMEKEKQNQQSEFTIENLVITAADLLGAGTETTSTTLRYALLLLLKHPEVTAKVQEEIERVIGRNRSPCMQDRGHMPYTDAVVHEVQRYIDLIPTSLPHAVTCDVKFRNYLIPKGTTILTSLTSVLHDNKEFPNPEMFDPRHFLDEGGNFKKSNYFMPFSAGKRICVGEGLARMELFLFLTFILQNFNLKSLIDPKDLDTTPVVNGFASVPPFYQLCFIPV

Cytochrome P450 1A2 = Cytochrome P450 1A2 (Homo sapiens, UniProt P05177); assay: Inhibition human CYP1A2; assay type: ADME
NCI-H460 [13] = assay: Antiproliferative activity against human NCI-H460 cells in culture medium with 10% lipid-reduced serum after 4 days in presence of palmitate by ATP-Glo assay; assay type: functional, cell-based; details: NCI-H460, 96 h
NCI-H460 [14] = assay: Antiproliferative activity against human NCI-H460 cells in culture medium with 10% lipid-reduced serum after 4 days by ATP-Glo assay; assay type: functional, cell-based; details: NCI-H460, 96 h
K562 [15] = assay: Antiproliferative activity against human K562 cells in culture medium with 10% lipid-reduced serum after 4 days in presence of palmitate by ATP-Glo assay; assay type: functional, cell-based; details: K562, 96 h
OCI-Ly1 [16] = assay: Antiproliferative activity against human OCI-LY1 cells in culture medium with 10% lipid-reduced serum after 4 days in presence of palmitate by ATP-Glo assay; assay type: functional, cell-based; details: OCI-Ly1, 96 h
LP-1 = assay: Antiproliferative activity against human LP-1 cells in culture medium with 10% lipid-reduced serum after 4 days in presence of palmitate by ATP-Glo assay; assay type: functional, cell-based; details: LP-1, 96 h
U2932 [17] = assay: Antiproliferative activity against human U2932 cells in culture medium with 10% lipid-reduced serum after 4 days in presence of palmitate by ATP-Glo assay; assay type: functional, cell-based; details: U2932, 96 h
A2780 [18] = assay: Antiproliferative activity against human A2780 cells in culture medium with 10% lipid-reduced serum after 4 days in presence of palmitate by MTT assay; assay type: functional, cell-based; details: A2780, 96 h
Cytochrome P450 3A4 = Cytochrome P450 3A4 (Homo sapiens, UniProt P08684); assay: Inhibition of human CYP3A4; assay type: ADME
Chain of Cytochrome P450 3A4 (P08684 whole entry): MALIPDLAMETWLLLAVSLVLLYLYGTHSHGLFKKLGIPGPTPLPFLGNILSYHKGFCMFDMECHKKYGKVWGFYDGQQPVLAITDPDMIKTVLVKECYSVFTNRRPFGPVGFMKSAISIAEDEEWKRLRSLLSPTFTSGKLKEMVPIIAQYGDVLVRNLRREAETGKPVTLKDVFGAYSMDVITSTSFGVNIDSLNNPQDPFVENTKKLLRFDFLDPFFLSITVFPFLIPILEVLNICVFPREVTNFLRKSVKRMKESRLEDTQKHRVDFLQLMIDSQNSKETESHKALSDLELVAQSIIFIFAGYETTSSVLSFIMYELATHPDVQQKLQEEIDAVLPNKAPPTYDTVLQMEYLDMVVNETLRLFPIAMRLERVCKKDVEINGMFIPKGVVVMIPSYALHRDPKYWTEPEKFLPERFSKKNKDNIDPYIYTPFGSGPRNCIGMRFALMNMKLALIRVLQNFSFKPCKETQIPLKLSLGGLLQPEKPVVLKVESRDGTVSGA

[19] = Tmax in mouse at 10 mg/kg, po; assay type: ADME, organism-based; details: in vivo
[20] = Antiproliferative activity against human LL cells in culture medium with 10% lipid-reduced serum after 4 days in presence of palmitate by ATP-Glo assay; assay type: functional, cell-based; details: 96 h
BT-20 = assay: Antiproliferative activity against human BT20 cells in culture medium with 10% lipid-reduced serum after 4 days in presence of palmitate by ATP-Glo assay; assay type: functional, cell-based; details: BT-20, 96 h
Cytochrome P450 2D6 = Cytochrome P450 2D6 (Homo sapiens, UniProt P10635); assay: Inhibition of human CYP2D6; assay type: ADME
Chain of Cytochrome P450 2D6 (P10635 whole entry): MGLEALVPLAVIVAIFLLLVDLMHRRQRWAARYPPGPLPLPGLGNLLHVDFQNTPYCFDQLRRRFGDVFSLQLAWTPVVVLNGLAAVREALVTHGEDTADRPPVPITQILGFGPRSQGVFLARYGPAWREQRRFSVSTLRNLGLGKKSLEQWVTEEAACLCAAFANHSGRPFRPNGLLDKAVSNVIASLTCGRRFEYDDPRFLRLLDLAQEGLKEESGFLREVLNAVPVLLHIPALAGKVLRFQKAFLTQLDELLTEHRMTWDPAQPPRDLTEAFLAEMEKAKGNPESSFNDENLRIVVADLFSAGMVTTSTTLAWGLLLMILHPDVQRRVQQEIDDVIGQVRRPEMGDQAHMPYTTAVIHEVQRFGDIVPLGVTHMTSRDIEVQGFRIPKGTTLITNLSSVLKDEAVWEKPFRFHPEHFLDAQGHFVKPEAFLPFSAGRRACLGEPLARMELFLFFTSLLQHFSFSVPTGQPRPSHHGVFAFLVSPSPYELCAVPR

[21] = Oral bioavailability in mouse at 10 mg/kg; assay type: ADME, organism-based; details: in vivo
[22] = Permeability in human Caco2 cells; assay type: ADME, cell-based; details: Caco-2, read-out: permeability
[23] = AUC in mouse at 10 mg/kg, po; assay type: ADME, organism-based; details: in vivo
[24] = Protein binding in human plasma; assay type: ADME, cell-free; details: read-out: PPB (converted)
Cytochrome P450 2C9 = Cytochrome P450 2C9 (Homo sapiens, UniProt P11712); assay: Inhibition of human CYP2C9; assay type: ADME
Chain of Cytochrome P450 2C9 (P11712 whole entry): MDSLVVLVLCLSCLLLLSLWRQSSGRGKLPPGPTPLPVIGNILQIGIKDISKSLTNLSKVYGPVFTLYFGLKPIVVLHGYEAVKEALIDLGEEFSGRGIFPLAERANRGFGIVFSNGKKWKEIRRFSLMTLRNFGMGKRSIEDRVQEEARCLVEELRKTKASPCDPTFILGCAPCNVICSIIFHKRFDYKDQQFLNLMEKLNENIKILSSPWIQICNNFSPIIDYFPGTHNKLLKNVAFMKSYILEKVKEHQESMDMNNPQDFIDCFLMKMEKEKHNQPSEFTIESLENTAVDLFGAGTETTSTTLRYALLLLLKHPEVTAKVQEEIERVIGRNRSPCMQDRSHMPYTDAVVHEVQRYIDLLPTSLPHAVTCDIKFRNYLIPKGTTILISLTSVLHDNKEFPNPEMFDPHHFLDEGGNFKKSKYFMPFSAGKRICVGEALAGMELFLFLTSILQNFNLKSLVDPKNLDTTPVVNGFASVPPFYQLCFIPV

HT-29 = assay: Antiproliferative activity against human HT-29 cells in culture medium with 10% lipid-reduced serum after 4 days by ATP-Glo assay; assay type: functional, cell-based; details: HT-29, 96 h
[25] = Half life in mouse at 10 mg/kg, po; assay type: ADME, organism-based; details: in vivo
MV4-11 [26] = assay: Antiproliferative activity against human MV4-11 cells in culture medium with 10% lipid-reduced serum after 4 days by ATP-Glo assay; assay type: functional, cell-based; details: MV4-11, 96 h
NCI-H929 [27] = assay: Antiproliferative activity against human NCI-H929 cells in culture medium with 10% lipid-reduced serum after 4 days by ATP-Glo assay; assay type: functional, cell-based; details: NCI-H929, 96 h
MDA-MB-468 [28] = assay: Antiproliferative activity against human MDA-MB-468 cells in culture medium with 10% lipid-reduced serum after 4 days in presence of palmitate by ATP-Glo assay; assay type: functional, cell-based; details: MDA-MB-468, 96 h
PC-3M = assay: Antiproliferative activity against human PC3M cells in culture medium with 10% lipid-reduced serum after 4 days by ATP-Glo assay; assay type: functional, cell-based; details: 96 h
LNCaP = assay: Antiproliferative activity against human LNCAP cells in culture medium with 10% lipid-reduced serum after 4 days by ATP-Glo assay; assay type: functional, cell-based; details: 96 h
A549 [29] = assay: Antiproliferative activity against human A549 cells in culture medium with 10% lipid-reduced serum after 4 days in presence of palmitate by ATP-Glo assay; assay type: functional, cell-based; details: A549, 96 h
U-266 = assay: Antiproliferative activity against human U266 cells in culture medium with 10% lipid-reduced serum after 4 days in presence of palmitate by ATP-Glo assay; assay type: functional, cell-based; details: U-266, 96 h
[30] = Cmax in mouse at 10 mg/kg, po; assay type: ADME, organism-based; set-up: dose 10 mg/kg, route oral; details: in vivo
[31] = Antiproliferative activity against human MM1R cells in culture medium with 10% lipid-reduced serum after 4 days by ATP-Glo assay; assay type: functional, cell-based; details: MM.1R, 96 h
A549 [32] = assay: Antiproliferative activity against human A549 cells in culture medium with 10% lipid-reduced serum after 4 days by ATP-Glo assay; assay type: functional, cell-based; details: A549, 96 h
U2932 [33] = assay: Antiproliferative activity against human U2932 cells in culture medium with 10% lipid-reduced serum after 4 days by ATP-Glo assay; assay type: functional, cell-based; details: U2932, 96 h
OCI-Ly1 [34] = assay: Antiproliferative activity against human OCI-LY1 cells in culture medium with 10% lipid-reduced serum after 4 days by ATP-Glo assay; assay type: functional, cell-based; details: OCI-Ly1, 96 h

Chain of Fatty acid synthase (P49327 whole entry): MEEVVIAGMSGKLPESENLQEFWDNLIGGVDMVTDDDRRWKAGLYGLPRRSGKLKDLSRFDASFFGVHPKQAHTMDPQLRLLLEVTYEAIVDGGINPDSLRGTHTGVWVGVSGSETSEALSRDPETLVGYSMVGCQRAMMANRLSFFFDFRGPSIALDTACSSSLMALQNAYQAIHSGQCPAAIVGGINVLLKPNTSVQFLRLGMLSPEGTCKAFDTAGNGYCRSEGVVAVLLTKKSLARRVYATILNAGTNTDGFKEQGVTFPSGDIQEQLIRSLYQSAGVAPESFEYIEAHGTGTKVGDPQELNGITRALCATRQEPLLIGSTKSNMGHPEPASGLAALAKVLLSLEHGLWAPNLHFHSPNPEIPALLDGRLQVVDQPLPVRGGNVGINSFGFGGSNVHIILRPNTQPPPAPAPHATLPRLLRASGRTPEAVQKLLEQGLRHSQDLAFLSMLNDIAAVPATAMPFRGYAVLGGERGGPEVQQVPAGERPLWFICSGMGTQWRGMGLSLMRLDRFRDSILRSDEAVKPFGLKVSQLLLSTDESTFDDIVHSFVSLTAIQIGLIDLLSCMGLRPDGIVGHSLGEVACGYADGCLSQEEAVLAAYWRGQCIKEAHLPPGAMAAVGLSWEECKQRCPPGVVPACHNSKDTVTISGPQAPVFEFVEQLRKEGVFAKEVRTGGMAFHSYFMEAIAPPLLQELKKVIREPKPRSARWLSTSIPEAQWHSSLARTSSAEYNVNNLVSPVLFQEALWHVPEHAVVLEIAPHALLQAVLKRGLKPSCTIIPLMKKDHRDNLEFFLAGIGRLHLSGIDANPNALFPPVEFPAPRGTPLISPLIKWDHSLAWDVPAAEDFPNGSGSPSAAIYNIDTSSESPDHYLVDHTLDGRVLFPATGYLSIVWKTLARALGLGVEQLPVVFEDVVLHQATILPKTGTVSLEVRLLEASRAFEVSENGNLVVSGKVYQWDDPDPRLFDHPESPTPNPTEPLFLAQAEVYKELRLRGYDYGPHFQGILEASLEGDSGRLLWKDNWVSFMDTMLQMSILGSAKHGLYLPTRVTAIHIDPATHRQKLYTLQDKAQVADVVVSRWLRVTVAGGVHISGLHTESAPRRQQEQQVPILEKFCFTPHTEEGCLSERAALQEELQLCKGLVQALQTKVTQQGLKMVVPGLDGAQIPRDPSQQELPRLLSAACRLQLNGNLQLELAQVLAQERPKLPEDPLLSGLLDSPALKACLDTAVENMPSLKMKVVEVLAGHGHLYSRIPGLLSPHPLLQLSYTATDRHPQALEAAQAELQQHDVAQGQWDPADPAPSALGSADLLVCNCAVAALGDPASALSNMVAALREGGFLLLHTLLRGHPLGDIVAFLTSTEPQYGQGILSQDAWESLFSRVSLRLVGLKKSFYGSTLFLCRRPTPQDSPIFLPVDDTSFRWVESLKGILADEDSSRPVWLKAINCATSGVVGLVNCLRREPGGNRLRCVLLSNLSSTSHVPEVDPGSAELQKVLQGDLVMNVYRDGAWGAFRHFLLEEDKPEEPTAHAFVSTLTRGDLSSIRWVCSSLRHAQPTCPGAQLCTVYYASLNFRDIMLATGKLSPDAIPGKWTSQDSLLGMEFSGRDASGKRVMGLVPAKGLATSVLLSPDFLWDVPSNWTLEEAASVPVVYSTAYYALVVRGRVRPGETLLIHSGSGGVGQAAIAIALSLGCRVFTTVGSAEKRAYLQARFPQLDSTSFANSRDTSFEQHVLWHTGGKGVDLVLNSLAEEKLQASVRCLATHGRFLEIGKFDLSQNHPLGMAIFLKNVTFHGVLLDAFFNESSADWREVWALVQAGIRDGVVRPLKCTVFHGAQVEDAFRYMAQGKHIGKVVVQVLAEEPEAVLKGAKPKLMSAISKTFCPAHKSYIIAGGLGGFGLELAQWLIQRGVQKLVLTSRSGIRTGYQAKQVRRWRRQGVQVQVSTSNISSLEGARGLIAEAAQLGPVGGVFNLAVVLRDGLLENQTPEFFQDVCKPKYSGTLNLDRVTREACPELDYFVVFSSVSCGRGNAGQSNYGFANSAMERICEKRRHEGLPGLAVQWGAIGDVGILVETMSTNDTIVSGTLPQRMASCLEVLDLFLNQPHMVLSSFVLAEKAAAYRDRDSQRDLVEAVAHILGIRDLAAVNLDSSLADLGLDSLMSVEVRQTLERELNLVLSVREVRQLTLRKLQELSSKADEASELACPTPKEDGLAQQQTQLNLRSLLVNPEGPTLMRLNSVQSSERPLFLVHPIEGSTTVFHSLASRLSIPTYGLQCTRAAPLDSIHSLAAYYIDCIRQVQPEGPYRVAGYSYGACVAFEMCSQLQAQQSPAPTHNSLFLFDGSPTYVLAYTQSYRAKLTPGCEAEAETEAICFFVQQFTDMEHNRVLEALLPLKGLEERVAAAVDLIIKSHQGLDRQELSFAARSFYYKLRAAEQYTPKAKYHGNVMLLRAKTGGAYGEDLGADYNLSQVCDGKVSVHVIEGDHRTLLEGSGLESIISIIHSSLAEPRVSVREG

`N#CC1(C(=O)N2CC[C@@H](CN3C(=O)C4(CC4)N=C3c3ccc(-c4ccc5occc5c4)cc3)C2)CC1` showed an IC50 (Fatty acid synthase) of 590 nM.

In the case of `O=C([C@@H]1CCCO1)N1CC[C@@H](CN2C(=O)C3(CC3)N=C2c2ccc(-c3ccc4occc4c3)cc2)C1`, the IC50 (Fatty acid synthase) is reported as 79 nM.

`O=C(C1CC1)N1CC[C@@H](CN2C(=O)C3(CC3)N=C2c2ccc(-c3ccc(-c4ccncc4)cc3)cc2)C1` gave an IC50 (Fatty acid synthase) of 23 nM.

Work on `CC1(C(=O)N2CC[C@@H](CN3C(=O)C4(CC4)N=C3c3ccc(-c4ccc5occc5c4)cc3)C2)CC1` yielded an IC50 (Fatty acid synthase) of 28 nM.

In the case of `Cn1cc(-c2ccc(-c3ccc(C4=NC5(CC5)C(=O)N4C[C@@H]4CCN(C(=O)C5CC5)C4)cc3)cc2)cn1`, the EC50 (NCI-H929 [1]) is reported as > 10000 nM, the EC50 (K562 [2]) is reported as 110 nM and the EC50 (MDA-MB-468 [3]) is reported as 26 nM. For the same compound, the EC50 (MV4-11 [4]) was > 10000 nM, the EC50 (HL-60 [5]) was 120 nM and the fraction unbound [6] was 0.034. For the same compound, the IC50 (Cytochrome P450 2C8) was > 10000 nM, the EC50 [7] was > 10000 nM and the Stability [8] was “Stable”. The EC50 [9] was 590 nM, the EC50 (HL-60 [10]) was 6310 nM and the EC50 (A2780 [11]) was 13 nM. For the same compound, the Stability [12] was “Stable”, the IC50 (Cytochrome P450 2C19) was > 10000 nM and the IC50 (Cytochrome P450 1A2) was > 10000 nM. The EC50 (NCI-H460 [13]) was > 10000 nM, the EC50 (NCI-H460 [14]) was 36 nM and the EC50 (K562 [15]) was 9330 nM. The EC50 (OCI-Ly1 [16]) was 6760 nM, the EC50 (LP-1) was > 10000 nM and the EC50 (U2932 [17]) was 3020 nM. The EC50 (A2780 [18]) was > 10000 nM, the IC50 (Cytochrome P450 3A4) was > 10000 nM and the Tmax [19] was 2 h. The EC50 [20] was 9330 nM, the EC50 (BT-20) was > 10000 nM and the IC50 (Cytochrome P450 2D6) was > 10000 nM. The bioavailability [21] was 60.6%, the Papp [22] was 7.1 ×10⁻⁶ cm/s and the AUC [23] was 11100 ng·h/mL. For the same compound, the fraction unbound [24] was 0.059, the IC50 (Cytochrome P450 2C9) was 7900 nM and the EC50 (HT-29) was 7940 nM. The half-life [25] was 2.5 h, the EC50 (MV4-11 [26]) was 59 nM and the EC50 (NCI-H929 [27]) was 3720 nM. The EC50 (MDA-MB-468 [28]) was > 10000 nM, the EC50 (PC-3M) was 25 nM and the EC50 (LNCaP) was 66 nM. The EC50 (A549 [29]) was > 10000 nM, the EC50 (U-266) was > 10000 nM and the Cmax [30] was 2030 ng/mL. It also gave an EC50 [31] of 170 nM, an EC50 (A549 [32]) of 20 nM and an EC50 (U2932 [33]) of 190 nM. The EC50 (OCI-Ly1 [34]) was 55 nM.

In the case of `Cn1ncc2cc(-c3cnc(C4=NC5(CC5)C(=O)N4C[C@@H]4CCN(C(=O)C5CC5)C4)nc3)ccc21`, the IC50 (Fatty acid synthase) is reported as 33100 nM.

Work on `O=C([C@H]1CCCO1)N1CC[C@@H](CN2C(=O)C3(CC3)N=C2c2ccc(-c3ccc4occc4c3)cc2)C1` yielded an IC50 (Fatty acid synthase) of 300 nM.

In the case of `O=C(CC(F)(F)F)N1CC[C@@H](CN2C(=O)C3(CC3)N=C2c2ccc(-c3ccc4occc4c3)cc2)C1`, the IC50 (Fatty acid synthase) is reported as 170 nM.

For `O=C(N1CC[C@@H](CN2C(=O)C3(CC3)N=C2c2ccc(-c3ccc4occc4c3)cc2)C1)C1(O)CC1`, the IC50 (Fatty acid synthase) was 36 nM.

In the case of `Cn1ccc(C(=O)N2CC[C@@H](CN3C(=O)C4(CC4)N=C3c3ccc(-c4ccc5occc5c4)cc3)C2)n1`, the IC50 (Fatty acid synthase) is reported as 450 nM.
